Assay results published in patent US20090275608A1, “Methods of diagnosing and treating parp-mediated diseases” (BiPar Sciences, Inc., priority 2008, published 2009).
“Also recorded” adds a separate entry of the source.

Experiments:
NF-κB = conditions: HeLa cells; cited from earlier work
HCC827 cells [1] = test: TUNEL apoptosis assay (FACS), Compound III with EGFR inhibitor; assay type: cell-based, human; conditions: GFT 2 nM + 201 0 μM
Procedure: (§1) Cell Culture: Triple negative MDA-MB-468 human breast carcinoma, U251 human glioblastoma and lung adenocarcinoma HCC827 cells were cultured in Dulbecco Modified Eagle Medium with 10% fetal bovine serum. Cells were plated at a seeding density 10^5 per P100 or at 10^4 per P60 in growth media and incubated 12-18 h at 37° C., 5% CO2. Compounds with and without secondary agent (see Table 1) were added as a single dose for 72 hours. DMSO was used as a control. Following treatment, cells were analyzed with BrdU ELISA Assay (Roche Applied Science), FACS based cell cycle assay or TUNEL.
(§2) Compounds: Compound III was dissolved directly from dry powder in DMSO (cat #472301, Sigma-Aldrich) for each separate experiment, then the entire volume of the stock solution was used to prepare 111 nM, 313 nM and 1 μM working concentrations in cell culture medium to avoid any possibility of precipitation and the corresponding loss of compound.
(§3) To detect apoptosis, the cells were labeled with the “In Situ Cell Death Detection Kit, Fluorescein” (Roche Diagnostics Corporation, Roche Applied Science, Indianapolis, Ind.). […] All cell samples were analyzed with a BD LSR II (BD Biosciences, San Jose, Calif.). […]

HCC827 cells [2] = test: FACS cell cycle analysis (PI DNA content), Compound III with EGFR inhibitor; assay type: cell-based, human
Procedure: (§4) The effects of Compound III and its nitroso metabolite on the cell cycle in cancer cell lines in combination with second agents were determined.
(§5) Compound III and Compound III-1 compounds were tested in the presence of the second agent according the schedule indicated in the Table below.
as §1, §2
(§6) PI Exclusion, Cell Cycle and TUNEL Assays (FACS): After the addition of drugs and incubation, cells were taken for counting and PI (Propidium Iodide) exclusion assay. One part of the cells was centrifuged and resuspended in 0.5 ml ice-cold PBS containing 5 μg/ml of PI. The other part of the cells was fixed in ice-cold 70% ethanol and stored in a freezer overnight. For cell cycle analysis, cells were stained with propidium iodide (PI) using standard procedures. Cellular DNA content was determined by flow cytometry using BD LSRII FACS, and the percentages of cells in G1, S or G2/M were determined using ModFit software.

NFκB = conditions: multiple myeloma cells, Hideshima et al., 2002; cited from earlier work
MDA-MB-468 cells [3] = test: FACS cell cycle analysis (PI DNA content), Compound III with IGF1R inhibitor; assay type: cell-based, human; conditions: for G1 / G2/M / S / Sub-G1: MDA-MB-468
Procedure: as §4, §5, §1, §2, §6

OVCAR-3 xenograft [4] = test: human ovarian adenocarcinoma OVCAR-3 xenograft model of cancer; assay type: in vivo, mice
Text: Xenograft cancer models can be employed to measure the effects of treatment of PARP and co-regulated gene modulators on cancer growth and progression.
Moreover, ovarian adenocarcinoma OVCAR-3 cells produce IGF-I and IGF-II, and express IGF1R, supporting the existence of an autocrine loop.

MDA-MB-468 cells [5] = test: TUNEL apoptosis assay (FACS), Compound III with IGF1R inhibitor; assay type: cell-based, human
Procedure: as §1, §2, §3

MDA-MB-468 cells [6] = test: BrdU labeling assay (FACS / ELISA), Compound III with IGF1R inhibitor; assay type: cell-based, human
Procedure: as §1, §2
Bromodeoxyuridine (BrdU) labeling assay and FACS-based cell cycle analysis: 50 μl of BrdU (Sigma Chemical Co., St. Louis, Mo.) stock solution (1 mM) was added to achieve final concentration of 10 μM BrdU. Then cells were incubated for 30 min at 37° C. and fixed in ice-cold 70% ethanol and stored at 4° C. overnight. […] All cell samples were analyzed with a BD LSR II (BD Biosciences, San Jose, Calif.). […]

MDA-MB-468 cells [7] = test: cell counting and PI exclusion assay (cell survival), Compound III with IGF1R inhibitor; assay type: cell-based, human
Procedure: as §1, §2
as §6, with “The other part of the cells was fixed in ice-cold 70% ethanol and stored in a freezer overnight. For cell cycle analysis, cells were stained with propidium iodide (PI) using standard procedures.” left out

OVCAR-3 xenograft [8] = conditions: previous studies, Gotlieb et al., 2006; cited from earlier work
OVCAR-3 cells = conditions: OVCAR-3 cell line, Gotlieb et al., 2006; cited from earlier work
OVCAR-4 cells = conditions: OVCAR-4 cell line, Gotlieb et al., 2006; cited from earlier work

Structure (SMILES): CCc1c2c(nc3ccc(O)cc13)-c1cc3c(c(=O)n1C2)COC(=O)[C@]3(O)CC [SN38, 7-ethyl-10-hydroxycamptothecin]
- NF-κB nuclear translocation and activation of NF-κB target genes (NF-κB): induce NF-κB nuclear translocation and activation of NF-κB target genes

Structure (SMILES): COc1cc2ncnc(Nc3ccc(F)c(Cl)c3)c2cc1OCCCN1CCOCC1 [GFT]
- TUNEL(+) (HCC827 cells [1]): 6.2
- G1 (HCC827 cells [2]; HCC827, GFT 2 nM + 201 0 μM): 51.0
- G2/M (HCC827 cells [2]; HCC827, GFT 2 nM + 201 0 μM): 9.2
- S (HCC827 cells [2]; HCC827, GFT 2 nM + 201 0 μM): 34.4
- Sub-G1 (HCC827 cells [2]; HCC827, GFT 2 nM + 201 0 μM): 3.4

Structure (SMILES): COc1cccc2c1C(=O)c1c(O)c3c(c(O)c1C2=O)C[C@@](O)(C(=O)CO)C[C@@H]3O[C@H]1C[C@H](N)[C@H](O)[C@H](C)O1 [doxorubicin]
- NF-κB nuclear translocation and activation of NF-κB target genes (NF-κB): induce NF-κB nuclear translocation and activation of NF-κB target genes

Structure (SMILES): O=C(Nc1cc(Cl)cc2c1[nH]c1cnccc12)c1cccnc1 [PS-1145]
- NFκB activation (NFκB): blocked NFκB activation

Structure (SMILES): NC(=O)c1ccc(I)c([N+](=O)[O-])c1 [Compound III]
- potentiation of the activity of IGF-1R inhibitor Picropodophyllin (PPP) (MDA-MB-468 cells [3]; triple negative breast cancer cells MDA-MB-468, FIG. 19): potentiates the activity of IGF-1R inhibitor Picropodophyllin (PPP)
- tumor growth, combination of PARP inhibitor and IGF1R inhibitor (OVCAR-3 xenograft [4]; Compound III combined with NVP-AEW541, expected from the single-agent data): inhibit tumor growth in mice even further
- survival of mice (OVCAR-3 xenograft [4]; OVCAR-3 xenograft, FIG. 18): improve survival of mice; also recorded: improval of survival of mice
- tumor growth (OVCAR-3 xenograft [4]; PARP1 inhibition by Compound III, OVCAR-3 xenograft in mice, FIG. 18): inhibit tumor growth
- potentiation of the activity of the EGF-R inhibitor IRESSA (HCC827 cells [2]; HCC827 cell line): potentiate the activity of the EGF-R inhibitor IRESSA®

Structure (SMILES): COc1cc([C@@H]2c3cc4c(cc3[C@H](O)[C@H]3COC(=O)[C@@H]23)OCO4)cc(OC)c1OC [Picropodophyllin]
- TUNEL(+) (MDA-MB-468 cells [5]; PPP 200 nM + 201 0 uM): 0.9
- TUNEL(+) (MDA-MB-468 cells [5]; PPP 400 nM + 201 0 uM): 4.1
- BrdU(−) S (MDA-MB-468 cells [6]; PPP 200 nM + 201 0 uM): 2.13
- BrdU(−) S (MDA-MB-468 cells [6]; PPP 400 nM + 201 0 uM): 9.45
- Vital Cell (MDA-MB-468 cells [7]; PPP 200 nM + 201 0 uM): 89
- Vital Cell (MDA-MB-468 cells [7]; PPP 400 nM + 201 0 uM): 60
- G1 (MDA-MB-468 cells [3]; PPP 200 nM + 201 0 uM): 51.42
- G2/M (MDA-MB-468 cells [3]; PPP 200 nM + 201 0 uM): 15.01
- S (MDA-MB-468 cells [3]; PPP 200 nM + 201 0 uM): 30.22
- Sub-G1 (MDA-MB-468 cells [3]; PPP 200 nM + 201 0 uM): 1.22
- G1 (MDA-MB-468 cells [3]; PPP 400 nM + 201 0 uM): 37.29
- G2/M (MDA-MB-468 cells [3]; PPP 400 nM + 201 0 uM): 20.17
- S (MDA-MB-468 cells [3]; PPP 400 nM + 201 0 uM): 25.32
- Sub-G1 (MDA-MB-468 cells [3]; PPP 400 nM + 201 0 uM): 7.77

Structure (SMILES): CC(C)C[C@H](NC(=O)[C@H](Cc1ccccc1)NC(=O)c1cnccn1)B(O)O [bortezomib]
- NFκB activation (NFκB): blocked NFκB activation

Structure (SMILES): Nc1ncnc2c1c(-c1cccc(OCc3ccccc3)c1)cn2C1CC(CN2CCC2)C1 (stereo not shown) [NVP-AEW541]
- growth of OVCAR-3 tumor (OVCAR-3 xenograft [8]): can inhibit growth of OVCAR-3 tumor
- growth of the cells (OVCAR-3 cells): inhibited growth of the cells
- growth of the cells (OVCAR-4 cells): inhibited growth of the cells
